Results: US8541464B2, “Treatment of atrial fibrillation” (HUYA Biosciences International LLC, priority 2009, dated 2013)
Several values for one entry are separate records, joined by “and”; a condition that tells them apart may be missing. Equal entries are not always repeated.

Tests used:
[1] = Plasma concentration in primate cardiovascular safety study; format: in vivo, Cynomolgus monkey
Procedure: A Swan Ganz (thermodilution catheter) was inserted into the right femoral vein via phlebotomy and advanced into the pulmonary artery for cardiac output measurements. A catheter was inserted in the left femoral artery via an arteriotomy for blood gas determination. Another catheter was inserted in the left femoral vein for blood collection for toxicokinetic evaluation. Finally, an incision was also performed on the left side of the neck to expose the left carotid artery and an electronic dual pressure sensor catheter (Millar) was placed via arteriotomy and advanced into the left ventricle. The catheter was positioned to simultaneously collect left ventricle blood pressure measurements as well as aortic pressure. In addition, a temporary catheter was placed in any of the cephalic veins for administration of Lactated Ringers at 10 mL/kg/hr throughout the course of the experiment.
Following surgical preparation, hemodynamic and electrocardiographic parameters were allowed to stabilize for at least 15 minutes. The vehicle control and test article were then administered, and hemodynamic, electrocardiographic parameters were monitored. Histamine and plasma PK data was obtained. […]

[2] = Plasma concentration in dog cardiovascular safety study; format: in vivo
Procedure: (§1) Dogs were administered morphine (2 mg/kg subcutaneously) approximately 10-19 minutes prior to administration of anesthesia. Dogs were anesthetized with 1% α-chloralose (100 mg/kg intravenous), followed by a constant infusion of α-chloralose (35-75 mg/kg/hr, IV). Two healthy female dogs were administered escalating doses of sulcardine sulfate intravenously over 15 minutes in an acetate buffer system at dose levels of 10, 30 and 90-mg/kg with dose administrations separated by 60 minutes. Following drug administration, dogs were evaluated for ventricular, pulmonary and peripheral hemodynamic changes using Swanz Ganz and femoral catheters as well as by monitoring of blood oxygen saturation, test article blood level, body temperature, blood biochemistries, hematologies, ECG, and histamine.
The mean peak sulcardine sulfate concentrations which peaked generally at the […] of each 15 minute infusion of sulcardine sulfate at 10, 30 and 90 mg/kg were 1.8, 11.2 and 100.1 μg/mL respectively which translated into approximately 4, 24.6 and 218 μM.

[3] = Plasma PK in Beagle dog after oral and IV administration; format: in vivo; parameters: AUC / CLs / Tmax / V/F (c): unit not given here; Cmax: unit: μg/mL
anesthetized dogs = assay: Cardiovascular safety in anesthetized dogs with diphenhydramine pretreatment; format: in vivo, dog; conditions: diphenhydramine pre-treated animals
Procedure: as §1, with “90 mg/kg” for “90-mg/kg”, “minutes. Another set of two dogs received test article after pre-treatment with diphenhydramine (1 mg/kg administered 30 minutes prior to start of test article infusion).” for “minutes.”, “biochemistry, hematology,” for “biochemistries, hematologies,”, “histamine levels.” for “histamine.”
Group 2 Animals: Sulcardine sulfate at 10, 30 and 90 mg/kg with diphenhydramine (1 mg/kg) administered approximately 30 minutes before treatment with 10 mg/kg sulcardine sulfate. Animals pre-treated with diphenhydramine (H1 antagonist) and dosed with sulcardine sulfate at 10 mg/kg, presented hemodynamic changes which are mediated by H2 receptors. The changes resembled those noted in Group 1 animals, but were of a reduced magnitude. […]

dogs = assay: Heart rate and blood pressure during slow (45 min) infusion in dogs; format: in vivo, dog; conditions: for Heart rate / Mean blood pressure: 14 mg/kg i.v. over 45 minutes
Procedure: Three additional animals received sulcardine sulfate (14 mg/kg, i.v.) infused over 45 minutes. The purpose of this study was to investigate whether or not a slow infusion (45 min) of sulcardine sulfate would affect heart rate and blood pressure. […] The change in blood pressure was modest, most likely due to a compensatory increase in the resting heart rate.

sulcardine sulfate
mean peak plasma concentration ([1]; 90 mg/kg, 15 minute infusion): 845.5 ug/mL and 1,860.1 μM
Cmax ([1]; primates, read-out: Cmax that led to observed side effects such as hypotension): 21 µM
mean peak plasma concentration ([2]; 90 mg/kg, 15 minute infusion): 100.1 μg/mL and ~218 μM
Cmax ([2]; dogs, read-out: Cmax that led to observed side effects such as hypotension): 25 µM
AUC ([3]; 8 mg/kg fast i.v push): 4.750 ± 1.778
CLs ([3]; 8 mg/kg fast i.v push): 1.850 ± 0.5911
K10 ([3]; 8 mg/kg fast i.v push): 0.7378 ± 0.2645 h⁻¹
K12 ([3]; 8 mg/kg fast i.v push): 1.982 ± 1.157 h⁻¹
K21 ([3]; 8 mg/kg fast i.v push): 0.5196 ± 0.3149 h⁻¹
T1/2α ([3]; 8 mg/kg fast i.v push): 0.2898 ± 0.2041 h
T1/2β ([3]; 8 mg/kg fast i.v push): 6.107 ± 1.537 h
V/F (c) ([3]; 8 mg/kg fast i.v push): 2.815 ± 1.714
AUC ([3]; 40 mg/kg po): 19.57 ± 2.414
CLs ([3]; 40 mg/kg po): 2.065 ± 0.2283
Cmax ([3]; 40 mg/kg po): 2.121 ± 0.4025
K12 ([3]; 40 mg/kg po): 0.1806 ± 0.0817 h⁻¹
K21 ([3]; 40 mg/kg po): 0.1778 ± 0.1295 h⁻¹
T1/2Ka ([3]; 40 mg/kg po): 33.98 ± 10.12 min
T1/2α ([3]; 40 mg/kg po): 1.636 ± 0.6148 h
T1/2β ([3]; 40 mg/kg po): 12.21 ± 3.412 h
V/F (c) ([3]; 40 mg/kg po): 12.08 ± 2.621
AUC ([3]; 80 mg/kg po): 83.53 ± 21.27
CLs ([3]; 80 mg/kg po): 1.013 ± 0.2956
Cmax ([3]; 80 mg/kg po): 8.849 ± 1.789
K10 ([3]; 80 mg/kg po): 0.1166 ± 0.0731 h⁻¹
K12 ([3]; 80 mg/kg po): -8.226 ± 16.60 h⁻¹
K21 ([3]; 80 mg/kg po): 10.10 ± 19.85 h⁻¹
T1/2Ka ([3]; 80 mg/kg po): 22.09 ± 14.66 min
T1/2α ([3]; 80 mg/kg po): 1.670 ± 1.068 h
T1/2β ([3]; 80 mg/kg po): 8.631 ± 2.294 h
Tmax ([3]; 80 mg/kg po): 1.407 ± 0.6461
V/F (c) ([3]; 80 mg/kg po): 16.60 ± 18.60
AUC ([3]; 160 mg/kg po): 291.6 ± 29.13
CLs ([3]; 160 mg/kg po): 0.5527 ± 0.0533
Cmax ([3]; 160 mg/kg po): 19.10 ± 3.412
K10 ([3]; 160 mg/kg po): 0.0856 ± 0.0155 h⁻¹
K12 ([3]; 160 mg/kg po): -0.0620 ± 0.1371 h⁻¹
K21 ([3]; 160 mg/kg po): 1.474 ± 1.562 h⁻¹
T1/2Ka ([3]; 160 mg/kg po): 49.54 ± 31.7 min
T1/2α ([3]; 160 mg/kg po): 1.758 ± 1.790 h
T1/2β ([3]; 160 mg/kg po): 9.640 ± 1.532 h
Tmax ([3]; 160 mg/kg po): 2.700 ± 1.001
V/F (c) ([3]; 160 mg/kg po): 6.528 ± 0.6551
Cmax read from PK curve ([3]; dogs, IV 8 mg/kg): about 10 μg/mL
mortality (anesthetized dogs; 90 mg/kg, final 15-minute infusion): all animals succumbed
severity of tachycardia (anesthetized dogs; after completion of dosing at 30 mg/kg): above 200 % of baseline
Heart rate (dogs; time 10 minutes): 95.0 ± 7.6 bpm
Mean blood pressure (dogs; time 10 minutes): 165.3 ± 0.3 mmHg
Heart rate (dogs; time 25 minutes): 115.0 ± 5.8 bpm
Mean blood pressure (dogs; time 25 minutes): 167.7 ± 9.8 mmHg
Heart rate (dogs; time 40 minutes): 115.0 ± 5.0 bpm
Mean blood pressure (dogs; time 40 minutes): 162.7 ± 11.3 mmHg
Heart rate (dogs; time 55 minutes): 103.3 ± 6.0 bpm
Mean blood pressure (dogs; time 55 minutes): 152.0 ± 16.2 mmHg
effect of slow intravenous administration on resting blood pressure and/or heart rate (dogs; total intravenous dose of 14 mg/kg over 45 min): did not result in a marked change in resting blood pressure and/or heart rate
